Conditions: rat; liver microsomes; pH 7.4; 15.0 min; 1.0 µM

| Compound | half-life [min] |
| --- | --- |
| Cc1ccc2c(c1)[nH]c1c(N3CCN(Cc4ccccc4)CC3)ncnc12 | 7.49 |
| Ic1ccccc1CNC1C2CCN(CC2)C1C(c1ccccc1)c1ccccc1 (stereo not drawn) | 8.51 |
| CCC(CC)c1cc([C@H]2CN3CC[C@H]2C[C@@H]3CNC(=O)Cc2cccs2)nc(-c2ccncc2)n1 | 2.78 |
| CCOc1ccc(-c2csc(N3CCC(C(N)=O)CC3)n2)cc1 | 9.24 |
| c1ccc(-c2cn[nH]c2)cc1 | 13.1 |
| Cc1noc(C)c1-c1csc(N2CCC(C(N)=O)CC2)n1 | > 30 |
| COc1ccccc1N1CCN(CCN(C(=O)c2ccc(I)cc2)c2ccccn2)CC1 | 1.49 |
| CCOC(=O)C1CCN(C(=O)C2(NC(=O)Nc3ccccc3Cl)CCCC2)CC1 | 1.5 |
| Brc1ccc(-c2csc(N3CCNCC3)n2)cc1 | 3.31 |
| Cc1nn(CC(=O)NCCCN2CCC(N3CCCCC3)CC2)c(=O)c2cc(-c3ccccc3)nn12 | 13 |
| Clc1ccccc1-c1nc(NCc2ccc(-c3cccnc3)cc2)c2ccccc2n1 | 6.99 |
| CCC[C@H](NC(=O)/C(C#N)=C/c1cccc(Br)n1)c1ccccc1 | > 30 |
| Cc1noc(C)c1Cc1ccc(C(=O)N2CCc3c(nc4cc(-c5ccccc5)[nH]n4c3=O)C2)o1 | 3.38 |
| COc1cc2c(C(=O)N3CCN(c4cccc(C(F)(F)F)c4)CC3)cn(CC(C)C)c(=O)c2cc1OC | 3.15 |
| Clc1ccc(-c2noc3ncnc(N4CCCCC4)c23)cc1 | 5.8 |
| CC(C)Oc1cccc(-c2ccnc(N3CCC(C(N)=O)CC3)n2)c1 | 11.6 |
| CCOC(=O)C1=C(CN(CC)Cc2ccccc2)NC(=O)NC1c1ccc(OC(C)C)cc1 (stereo not drawn) | 1.2 |
| CCn1c(C(=O)N2CCCC(C(=O)NCCc3ccc(C)cc3)C2)cc2sccc21 (stereo not drawn) | 1.7 |
| CCS(=O)(=O)N1CC(CC#N)(n2cc(-c3ncnc4[nH]ccc34)cn2)C1 | > 30 |
| COc1cccc(CNCc2cccn2-c2nnc(N3CCN(c4ccccc4)CC3)s2)c1 | 2.06 |
| Cc1ccc(-n2ncc(C(=O)NCCN3CCC(Cc4ccccc4)CC3)c2C2CCN(C(=O)OC(C)(C)C)CC2)cc1 | 9.29 |
| CCOc1ccc(CN2C(=O)c3ccccc3Sc3ccc(C(=O)NC4CCC(C)CC4)cc32)cc1 (stereo not drawn) | 3.52 |
| O=C(O)c1ccnc2cc(C(OCCN3CCCCC3)c3ccccc3Cl)[nH]c12 (stereo not drawn) | > 30 |
| COc1cccc(-c2csc(N3CCC(C(N)=O)CC3)n2)c1 | 1.33 |
| COc1cccc(-c2nc(-c3c(C)noc3C)cc3[nH]c(C)cc23)c1OC | 10.2 |
| O=c1cc(-c2ccc(O)c(O)c2)oc2cc(O)cc(O)c12 | > 30 |
| CC(C)c1cc(C(=O)N2CC[C@@H](NC(=O)C3CC3)C2)n[nH]1 | > 30 |
| CCc1ccccc1OC[C@@H](O)CN[C@H]1CCCc2ccccc21 | 1.8 |
| CCOC(=O)C1CCN(C(=O)C2(NC(=O)Nc3ccc(F)cc3F)CCCCC2)CC1 | 2.7 |
| CN1CCCC1CCOC(c1cc2nccc(C(=O)O)c2[nH]1)c1ccccc1Cl (stereo not drawn) | > 30 |

Continued, values first:

| half-life [min] | Compound |
| --- | --- |
| > 30 | C[C@H]1CN(C(=O)Nc2ccc(F)cc2F)C[C@@H]1c1nc(-c2ccccc2)no1 |
| 10.4 | CC1=C(C(=O)Nc2nc3ccccc3s2)C(c2[nH]ncc2Cl)N=C(Nc2nc3ccccc3o2)N1 (stereo not drawn) |
| 22 | OCc1cccc(-c2cc(-c3cccnc3)c3cncn3c2)c1 |
| 1.07 | CC(C)n1cc(-c2ccc3c(c2)N(C)CC3)c2c(NS(=O)(=O)c3ccn(C)n3)ccnc21 |
| > 30 | O=C(Nc1ccc([S+](=O)([O-])Nc2nccs2)cc1)c1ccn[nH]1 |
| 24 | COc1ccc(Cl)cc1C(=O)Nc1nc(-c2ccccc2)cs1 |
| 13 | c1ccc2[nH]c(Nc3nc(-c4ccncc4)nc4ccccc34)nc2c1 |
| 17.8 | O=C(Cc1cccs1)NCc1nnc2ccc(-c3ccccc3)nn12 |
| 2.2 | CC(C)c1ccccc1-c1ncc(F)c(NCC2CCN(c3cnccn3)C2)n1 (stereo not drawn) |
| > 30 | CN1CCN(c2ccc(-c3cccc(CN4CCOCC4)c3)cc2NC(=O)c2c[nH]c(=O)cc2C(F)(F)F)CC1 |
| 4.4 | Cc1cccc(C(=O)N2CCc3cc(-c4nc(NC(=O)Cc5ccc6c(c5)OCO6)sc4C)ccc32)c1 |
| 27.7 | O=S(=O)(c1ccccc1)N1CCN(c2nc(-c3ccc(Br)cc3)cs2)CC1 |
| 1.6 | Cc1ccc(OCCn2c(CCNC(=O)C3CCCCC3)nc3ccccc32)cc1 |
| 13 | Cc1ccc(S(=O)(=O)Nc2ccccc2C(=O)Nc2ncc(-c3ccccc3)s2)cc1 |
| 3 | COC(=O)c1ccccc1C(=O)Nc1nc(-c2ccccc2)cs1 |
| 23 | Fc1ccc(-c2ccc(Nc3nc(-c4ccncc4)nc4ccccc34)cc2F)c(F)c1 |
| 10.3 | CCCCn1cnc2cc(NCc3ccc(OCC)cc3)ccc21 |
| 5.9 | Cc1ccc(S(=O)(=O)Nc2cnccc2C(=O)NCc2ccccc2)cc1 |
| > 30 | Nc1nc(Nc2ccc(S(N)(=O)=O)cc2)n(C(=S)Nc2c(F)cccc2F)n1 |
| 2.67 | Cc1n[nH]c(C)c1CCc1nc2c3ccccc3nc(SCC(=O)Nc3ccc(F)cc3)n2n1 |
| > 30 | CC(=O)Nc1cccc(-c2csc(Nc3cc(C)ccn3)n2)c1 |
| 10.3 | COCCNCc1ccc(-c2cc3nccc(Oc4ccc(NC(=S)NC(=O)Cc5ccc(F)cc5)cc4F)c3s2)nc1 |

| half-life [min] | Compound |
| --- | --- |
| 7.5 | O=S(=O)(Nc1nccs1)c1ccc(NCc2ccc(Cl)cc2O)cc1 |
| 3.38 | COc1ccc(C)cc1NS(=O)(=O)c1ccc(-c2cnc(C3CC3)o2)cc1 |
| 17.6 | COc1cccc(C(=O)Nc2nc(-c3nnn(-c4cc(C)ccc4C)c3C)ns2)c1 |
| 20 | Cc1cc(F)ccc1S(=O)(=O)Nc1cnccc1C(=O)Nc1nc(-c2ccccc2)cs1 |
| 2.01 | Cc1cccc(S(=O)(=O)c2cn(Cc3ccccc3)c3cc(N4CCCC(C)C4)c(F)cc3c2=O)c1 (stereo not drawn) |
| 3.3 | CCCc1ccc(-c2csc(NC(=O)c3ccncc3NS(=O)(=O)c3ccc(C)cc3)n2)cc1 |
| 2.5 | FC(F)(F)c1ccccc1-c1nc(NCc2cccs2)c2ccccc2n1 |
| 9.8 | O=C(c1ccc2c(c1)ncn2-c1ccc(Cl)cc1)N1CCCCC1 |
| > 30 | Cc1ccccc1C(=O)n1ccc2cc(-c3nc(NC(=O)Cc4ccc5c(c4)OCO5)sc3C)ccc21 |
| 25 | CC(=O)N1CCc2c(sc3c2c(=O)n(-c2ccccc2)c(=O)n3Cc2cccc(C(F)(F)F)c2)C1 |
| > 30 | O=C1CCC(CNC(=O)c2nc(-c3ccccc3)cc3[nH]ccc23)N1 (stereo not drawn) |
| 3.3 | CCC(=O)NC(c1ccco1)c1cc(Cl)c2cccnc2c1O (stereo not drawn) |
| > 30 | COc1cccc(CNc2ccc(S(=O)(=O)Nc3nc4ccccc4s3)cc2)c1O |
| 9.8 | C=Cc1ccc(Cn2c(C(=O)O)c(CNCc3ccccc3)c3ccc(OC)cc32)cc1 |
| 2.34 | O=S(=O)(c1ccc2ccccc2c1)N1CCN(c2nc(-c3cccs3)nc3ccccc23)CC1 |
| 5 | CC(=O)c1c(C)[nH]c(C(=O)Nc2cccc([S+](=O)([O-])Nc3c(C)cccc3C)c2)c1C |
| 1.57 | Cc1cccc(N(C)c2nc3ccccc3c3nnc(C)n23)c1 |
| 2.8 | COC(=O)c1ccccc1NC(=O)c1ccccc1OC(F)F |
| 9.7 | Cc1ccccc1C(=O)N1CCc2cc(-c3cccc(NC(=O)Cc4ccc5c(c4)OCO5)c3)ccc21 |
| 22 | O=C(O)c1ccccc1-c1ccc(/C=c2\sc3nc4cc(Br)cnc4n3c2=O)o1 |
| 12.7 | O=C(NCc1cccs1)c1cn2cc(-c3ccccc3)sc2n1 |

From PubChem BioAssay AID1508591
